According to US20110318403A1, “Preparation and Use of Pouteria Lucuma Extract” (priority 2008, published 2011):

Legend:
[1] = tested on: transgenic zebrafish larvae tail fin (GFP-positive endothelial cells); assay: zebrafish larvae tailfin primordia amputation regeneration / angiogenesis assay; assay type: in vivo; settings: 48 hours after amputation
Description: A tailfin model of in vivo wound healing and regeneration was also used to assess the ability of a lucuma nut oil extract to promote appropriate wound healing, and the results of these assays also provided information on the angiogenic properties of LNO. In this transgenic model, the fli1 promoter drives expression of green fluorescent protein (GFP) in all the vascular endothelial cells, which allows tracking of wound healing in real time by direct observation of angiogenesis. Forty-eight-hour-old or five-day-old zebrafish larvae (AB strain) were anesthetized in 0.04% 3-amino benzoic acid ethylester (tricaine; MS-222) and placed in 2% agar Petri dishes. Surgical blades were used to amputate tailfin primordia just posterior to the notochord. Larvae were placed in 24-well plates containing either water (control), CGS-21680 (50 μg/mL; CAS120225-54-9) or LNO (10-100 μg/mL in water) and incubated at 28° C. Primordia re-growth was measured using fluorescence microscopy and image analysis of fluorescent endothelial cells. For this assay, the fin fluorescent area was normalized against the total fin area. […] The effects of LNO were analyzed and compared to the positive control CGS-21680 (2-p-(2-Carboxyethyl)phenethylamino-5′-N-ethylcarboxamidoadenosine). […]

[2] = tested on: Human neonatal fibroblasts; assay: scratched fibroblast assay (wound closure of monolayer); assay type: cell-based; settings: equivalent concentrations of pure FAs (LA 24 μg/mL, OA 18 μg/mL), 24 hours
Method: Human neonatal fibroblasts were maintained in Dulbecco's Modified Eagle Medium (D-MEM)+10% fetal bovine serum (FBS) and were kept in a humidified 37° C. incubator with 5% CO2. Cells were plated at a density of 1×10^4 cells per well in a 24-well plate and incubated for 24 hours, or until 100% confluency was reached. Each monolayer was wounded by dragging a pipette tip across the bottom of the well, using a straight edge as a guide (approximately 1.3 mm in width). The media was removed and cells were washed with 500 μL PBS twice to remove detached cells or cell debris. The cells were treated as follows: DMEM+10% FBS+vehicle (0.06% glycerol, positive control), DMEM+vehicle (0.06% glycerol, negative control), DMEM+vehicle (0.06% glycerol)+LNO (60 μg/mL), DMEM+vehicle (0.06% glycerol)+LA (24 μg/mL) and DMEM+vehicle (0.06% glycerol)+OA (18 μg/mL). Photos were taken of each well to measure the initial area of the wound. After 24 hours incubation, wells were photographed again. The scratched area was measured using […] Photoshop CS software, and percentage of wound closure at each time point was derived by the following formula: (1−[current wound size/initial wound size])×100.

[3] = tested on: dermal wounds of CD-1 mice; assay: CD-1 mouse excision wound healing assay; assay type: in vivo; settings: topical once daily, 10 μg/mouse, CT50 ± SE
Method: The LNO extract of Example 1 was further used in two in vivo models to assess wound healing and regeneration. […] In this experiment, a 12 mm skin punch was used to create a wound in mice and the mice were then divided into three groups, i.e., a negative control group, an experimental group and a positive control group. Immediately following wounding, the wounds were treated for ten days with either vehicle (0.5% carboxymethylcellulose in PBS), lucuma nut oil (LNO) (200 μg/mouse) in vehicle, or the positive control CGS-21680 (CAS120225-54-9, a specific adenosine A2A receptor agonist offered commercially by Tocris; see U.S. Pat. No. 4,968,697), also in vehicle. […] Wound healing assays were performed by MDS Pharma Services, Taiwan, MDSPS Testing Code 1115924, according to the protocol describe elsewhere (Kapoor, et al., J. Clin. Invest., 118:3279-3290 (2008); Montesinos, et al., J. Exp. Med., 186:1615-1620 (1997), each description incorporated herein by reference). Briefly, groups of 5 male CD-1 mice weighing 22±2 g were used for this assay. […] The wounded area was traced onto clear plastic sheets on days 3, 5, 7, 9 and 11 and quantitated by using an Image Analyzer (Life Science Resources VISTA, Version 30). […]

## CCCCC/C=C\C/C=C\CCCCCCCC(=O)O [LA, linoleic acid]
[1]
  GFP-positive endothelial cells in regenerating tail fin (angiogenesis): not found
[2]
  cell migration in scratched fibroblasts compared with LNO 60 μg/mL: not able to reproduce the effect of LNO in cell migration

## CCNC(=O)[C@H]1O[C@@H](n2cnc3c(N)nc(NCCc4ccc(CCC(=O)O)cc4)nc32)[C@H](O)[C@@H]1O [CGS, 2-p-(2-Carboxyethyl)phenethylamino-5′-N-ethylcarboxamidoadenosine]
[3]
  Dermal wound closure expressed as half-closure time (CT50): 6.04 ± 0.2 days

## CCCCCCCC/C=C\CCCCCCCC(=O)O [OA, oleic acid]
[1]
  GFP-positive endothelial cells in regenerating tail fin (angiogenesis): not found
[2]
  cell migration in scratched fibroblasts compared with LNO 60 μg/mL: not able to reproduce the effect of LNO in cell migration
